Data: ChEMBL document CHEMBL6109180, “De Novo-Designed APC/C Inhibitors Provide a Rationale for Targeting RING-Type E3 Ubiquitin Ligases” (J Med Chem, 2025)
pIC50, pKi: −log10 of the molar value. Each block holds one molecule with its values, some of them ahead of it. Activity calls are given as the source filed them. No cut-off for these calls is given here. Numbered stars: 1 amine (or outer) side, 2 acyl side, 3 side chain; on linkers, the order of the positions; unused ones are H or OH. Bridge positions count the residues as written; N and C are the ends. Square brackets hold non-standard residues; d marks the D form. Peptide text beside a SMILES is read from it. I, II: the chains in the order shown. X1 = O=C(O)CC[C@@H](C(=O)[*:2])N(CCOCCOCCOCCOCCOCCO[*:3])[*:1]; X2 = C[C@@](CCCCC=[*:3])(N[*:1])C(=O)[*:2]; R8 = C=CCCCCCC[C@@](C)(N)C(=O)O; S5 = C=CCCC[C@](C)(N)C(=O)O; Pra = C#CC[C@H](N)C(=O)O

Experiments:
[1] = tested on: HeLa; experiment: (§1) Inhibition of recombinant APC/C/cdc20 (unknown origin) in metaphase-synchronized human HeLa cells co-expressing GST-tagged UBA1/UBE2S/methylated ubiquitin using cyclin B1 as substrate at 100 uM measured after 45 mins in presence of ATP by immuno-precipitation method; format: cell-based
[2] = tested on: HeLa; experiment: Inhibition of recombinant APC/C/cdc20 (unknown origin) in metaphase-synchronized human HeLa cells co-expressing GST-tagged UBA1/UBE2C/methylated ubiquitin using cyclin B1 as substrate at 100 uM measured after 45 mins in presence of ATP by immuno-precipitation method
[3] = organism: Homo sapiens; experiment: Potency index, ratio of Apcin IC50 to test compound IC50 for inhibition of APC/C (unknown origin)
[4] = tested on: TERT-RPE1; experiment: Effect on time length of mitosis in human RPE-1 cells at 50 uM measured for 10 to 24 hrs by bright field microscopy; format: functional, cell-based; conditions: time 10-24 hrs
[5] = Non-competitve inhibition of recombinant APC/C/cdc20 (unknown origin) in metaphase-synchronized human HeLa cells co-expressing GST-tagged UBA1/UBE2C/methylated ubiquitin using RD680-labeled securin as substrate measured after 45 mins in presence of ATP by immuno-precipitation method; format: cell-based
[6] = tested on: HeLa; experiment: (§2) Inhibition of recombinant APC/C/cdc20 (unknown origin) in metaphase-synchronized human HeLa cells co-expressing GST-tagged UBA1/UBE2C/methylated ubiquitin using RD680-labeled securin as substrate at 100 uM measured after 45 mins in presence of ATP by immuno-precipitation method; format: cell-based
[7] = molecular target: T1, Ubiquitin-conjugating enzyme E2 C (Homo sapiens) (UniProt O00762); experiment: Inhibition of UBE2C (unknown origin) auto-ubiquitination at 100 uM measured after 45 mins in presence of UBA1/His6-ubiquitin/ATP by SDS-PAGE analysis
T1 sequence (whole entry): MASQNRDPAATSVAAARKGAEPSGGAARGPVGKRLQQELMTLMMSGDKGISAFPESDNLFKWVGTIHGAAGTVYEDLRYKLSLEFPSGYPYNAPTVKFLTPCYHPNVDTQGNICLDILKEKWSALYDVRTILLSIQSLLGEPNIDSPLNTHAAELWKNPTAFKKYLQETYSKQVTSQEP

[8] = Inhibition of recombinant APC/C/cdc20 (unknown origin) in metaphase-synchronized human HeLa cells co-expressing GST-tagged UBA1/UBE2C/methylated ubiquitin using RD680-labeled securin as substrate measured after 45 mins in presence of ATP by immuno-precipitation method
[9] = tested on: HeLa; experiment: Inhibition of recombinant APC/C/cdc20 (unknown origin) in metaphase-synchronized human HeLa cells co-expressing GST-tagged UBA1/UBE2C/methylated ubiquitin using RD680-labeled securin as substrate at 25 uM measured after 45 mins in presence of ATP by immuno-precipitation method relative to control
[10] = tested on: HeLa; experiment: as §1, with “substrate assessed as decrease in UBE2S-driven chain elongation” for “substrate”; format: cell-based
[11] = tested on: HeLa; experiment: Inhibition of recombinant APC/C/cdc20 (unknown origin) in metaphase-synchronized human HeLa cells co-expressing GST-tagged UBA1/UBE2D1/methylated ubiquitin using cyclin B1 as substrate at 100 uM measured after 45 mins in presence of ATP by immuno-precipitation method
[12] = Drug localization in human HeLa cells assessed as punctate pattern formation at 50 uM incubated for 10 hrs by AF488 dye based analysis; format: ADME, cell-based
[13] = molecular target: E3 ubiquitin-protein ligase CBL (Homo sapiens) (UniProt P22681); experiment: Binding affinity to c-CBL in asynchronously growing human HeLa cells incubated for 30 mins by pull down assay; format: cell-based
[14] = molecular target: Anaphase-promoting complex subunit 11 (Homo sapiens) (UniProt Q9NYG5); experiment: Binding affinity to APC11 in asynchronously growing human HeLa cells incubated for 30 mins by pull down assay; format: cell-based
Anaphase-promoting complex subunit 11 (Homo sapiens), sequence (Q9NYG5 whole entry, one chain of several): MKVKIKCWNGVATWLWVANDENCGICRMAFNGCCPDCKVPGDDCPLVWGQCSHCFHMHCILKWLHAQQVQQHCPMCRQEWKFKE

[15] = molecular target: E3 ubiquitin-protein ligase Mdm2 (Homo sapiens) (UniProt Q00987); experiment: Binding affinity to MDM2 in asynchronously growing human HeLa cells incubated for 30 mins by pull down assay; format: cell-based
E3 ubiquitin-protein ligase Mdm2 (Homo sapiens), sequence (Q00987 whole entry, looked up): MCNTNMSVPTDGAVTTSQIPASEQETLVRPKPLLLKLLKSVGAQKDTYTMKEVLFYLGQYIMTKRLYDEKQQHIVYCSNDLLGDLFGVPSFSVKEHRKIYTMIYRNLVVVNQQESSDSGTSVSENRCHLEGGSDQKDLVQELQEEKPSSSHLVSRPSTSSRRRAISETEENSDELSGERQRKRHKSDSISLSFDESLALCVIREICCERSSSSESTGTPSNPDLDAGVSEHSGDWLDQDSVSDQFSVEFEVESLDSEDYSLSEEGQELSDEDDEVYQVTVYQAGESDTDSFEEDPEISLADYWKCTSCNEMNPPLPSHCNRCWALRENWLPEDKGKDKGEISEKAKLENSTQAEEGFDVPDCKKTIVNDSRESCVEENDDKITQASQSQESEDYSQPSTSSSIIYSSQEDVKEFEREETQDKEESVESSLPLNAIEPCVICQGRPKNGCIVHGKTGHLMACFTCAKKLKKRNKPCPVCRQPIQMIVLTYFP

[16] = tested on: HeLa; experiment: Inhibition of recombinant APC/C/cdc20 (unknown origin) in metaphase-synchronized human HeLa cells co-expressing GST-tagged UBA1/UBE2D1/methylated ubiquitin using RD680-labeled securin as substrate at 100 uM measured after 45 mins in presence of ATP by immuno-precipitation method; format: cell-based
[17] = molecular target: Anaphase-promoting complex subunit 11 (Homo sapiens) (UniProt Q9NYG5); experiment: Binding affinity to APC11 (unknown origin) assessed as binding free energy
[18] = tested on: HeLa; experiment: as §2, with “substrate assessed as maximum inhibition” for “substrate”, “15” for “45”; format: cell-based
[19] = molecular target: T2, Polycomb complex protein BMI-1 (Homo sapiens) (UniProt P35226); experiment: Binding affinity to BMI1 in asynchronously growing human HeLa cells incubated for 30 mins by pull down assay; format: cell-based
T2 sequence (whole entry): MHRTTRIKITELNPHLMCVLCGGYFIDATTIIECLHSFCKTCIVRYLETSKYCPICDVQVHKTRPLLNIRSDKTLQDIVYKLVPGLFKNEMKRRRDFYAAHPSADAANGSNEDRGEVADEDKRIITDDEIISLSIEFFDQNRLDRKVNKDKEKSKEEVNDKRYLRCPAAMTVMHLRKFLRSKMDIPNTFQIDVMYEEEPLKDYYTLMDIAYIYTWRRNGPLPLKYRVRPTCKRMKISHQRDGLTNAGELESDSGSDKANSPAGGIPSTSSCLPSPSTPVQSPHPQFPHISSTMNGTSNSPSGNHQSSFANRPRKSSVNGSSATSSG

[20] = molecular target: E3 ubiquitin-protein ligase RBX1 (Homo sapiens) (UniProt P62877); experiment: Binding affinity to RBX1 in asynchronously growing human HeLa cells incubated for 30 mins by pull down assay; format: cell-based
E3 ubiquitin-protein ligase RBX1 (Homo sapiens), sequence (P62877 whole entry, looked up): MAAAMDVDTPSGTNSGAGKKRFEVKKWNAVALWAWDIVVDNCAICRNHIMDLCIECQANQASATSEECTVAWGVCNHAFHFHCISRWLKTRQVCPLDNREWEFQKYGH

[21] = molecular target: Breast cancer type 1 susceptibility protein (Homo sapiens) (UniProt P38398); experiment: Binding affinity to BRCA1 in asynchronously growing human HeLa cells incubated for 30 mins by pull down assay; format: cell-based
Breast cancer type 1 susceptibility protein (Homo sapiens), sequence (P38398 whole entry, looked up): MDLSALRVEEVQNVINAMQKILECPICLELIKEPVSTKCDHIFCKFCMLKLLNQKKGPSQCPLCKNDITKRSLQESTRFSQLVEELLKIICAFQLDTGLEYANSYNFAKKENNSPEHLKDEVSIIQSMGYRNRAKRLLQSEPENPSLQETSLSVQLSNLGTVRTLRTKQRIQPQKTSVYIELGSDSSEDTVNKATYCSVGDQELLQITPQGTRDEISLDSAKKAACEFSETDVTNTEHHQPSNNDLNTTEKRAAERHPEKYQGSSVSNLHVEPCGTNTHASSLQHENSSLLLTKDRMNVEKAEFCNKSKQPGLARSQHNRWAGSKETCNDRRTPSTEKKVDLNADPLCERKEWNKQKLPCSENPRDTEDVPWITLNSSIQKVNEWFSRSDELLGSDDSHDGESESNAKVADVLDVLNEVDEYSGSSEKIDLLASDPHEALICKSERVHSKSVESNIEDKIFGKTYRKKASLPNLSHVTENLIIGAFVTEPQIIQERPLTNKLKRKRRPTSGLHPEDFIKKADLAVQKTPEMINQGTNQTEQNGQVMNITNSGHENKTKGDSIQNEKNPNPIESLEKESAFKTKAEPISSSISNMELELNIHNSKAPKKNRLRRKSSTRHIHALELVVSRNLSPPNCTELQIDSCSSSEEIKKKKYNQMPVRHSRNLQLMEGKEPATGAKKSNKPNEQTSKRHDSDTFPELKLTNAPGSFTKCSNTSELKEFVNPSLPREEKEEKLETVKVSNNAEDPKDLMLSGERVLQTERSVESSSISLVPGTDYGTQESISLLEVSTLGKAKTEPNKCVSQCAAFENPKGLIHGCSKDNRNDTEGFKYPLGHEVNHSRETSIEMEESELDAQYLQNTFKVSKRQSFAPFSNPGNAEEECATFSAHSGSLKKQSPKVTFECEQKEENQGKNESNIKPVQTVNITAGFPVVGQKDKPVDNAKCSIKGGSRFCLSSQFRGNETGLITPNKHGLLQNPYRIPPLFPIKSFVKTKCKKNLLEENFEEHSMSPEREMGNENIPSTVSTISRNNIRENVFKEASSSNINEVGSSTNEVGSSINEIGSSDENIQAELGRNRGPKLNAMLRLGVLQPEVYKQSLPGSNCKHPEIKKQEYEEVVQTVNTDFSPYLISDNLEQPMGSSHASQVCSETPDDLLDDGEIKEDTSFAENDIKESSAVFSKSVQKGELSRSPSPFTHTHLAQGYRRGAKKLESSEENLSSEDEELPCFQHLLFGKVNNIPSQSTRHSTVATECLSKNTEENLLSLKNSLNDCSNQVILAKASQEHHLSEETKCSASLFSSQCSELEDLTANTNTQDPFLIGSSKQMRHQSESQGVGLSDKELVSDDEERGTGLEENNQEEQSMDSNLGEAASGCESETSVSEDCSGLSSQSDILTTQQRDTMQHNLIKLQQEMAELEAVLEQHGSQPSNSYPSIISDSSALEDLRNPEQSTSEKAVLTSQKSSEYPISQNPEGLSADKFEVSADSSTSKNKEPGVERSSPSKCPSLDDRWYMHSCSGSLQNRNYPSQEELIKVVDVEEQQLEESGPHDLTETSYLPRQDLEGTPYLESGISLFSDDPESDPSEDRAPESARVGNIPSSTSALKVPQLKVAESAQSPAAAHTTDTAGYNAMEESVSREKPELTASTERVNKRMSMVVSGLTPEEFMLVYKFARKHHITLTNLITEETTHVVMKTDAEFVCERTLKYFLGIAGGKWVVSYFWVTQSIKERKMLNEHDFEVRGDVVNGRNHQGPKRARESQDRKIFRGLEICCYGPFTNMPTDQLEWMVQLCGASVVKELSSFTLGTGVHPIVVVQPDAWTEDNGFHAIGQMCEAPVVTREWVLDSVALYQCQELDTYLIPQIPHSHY

[22] = molecular target: Baculoviral IAP repeat-containing protein 2 (Homo sapiens) (UniProt Q13490); experiment: Binding affinity to c-IAP1 in asynchronously growing human HeLa cells incubated for 30 mins by pull down assay; format: cell-based
Baculoviral IAP repeat-containing protein 2 (Homo sapiens), sequence (Q13490 whole entry): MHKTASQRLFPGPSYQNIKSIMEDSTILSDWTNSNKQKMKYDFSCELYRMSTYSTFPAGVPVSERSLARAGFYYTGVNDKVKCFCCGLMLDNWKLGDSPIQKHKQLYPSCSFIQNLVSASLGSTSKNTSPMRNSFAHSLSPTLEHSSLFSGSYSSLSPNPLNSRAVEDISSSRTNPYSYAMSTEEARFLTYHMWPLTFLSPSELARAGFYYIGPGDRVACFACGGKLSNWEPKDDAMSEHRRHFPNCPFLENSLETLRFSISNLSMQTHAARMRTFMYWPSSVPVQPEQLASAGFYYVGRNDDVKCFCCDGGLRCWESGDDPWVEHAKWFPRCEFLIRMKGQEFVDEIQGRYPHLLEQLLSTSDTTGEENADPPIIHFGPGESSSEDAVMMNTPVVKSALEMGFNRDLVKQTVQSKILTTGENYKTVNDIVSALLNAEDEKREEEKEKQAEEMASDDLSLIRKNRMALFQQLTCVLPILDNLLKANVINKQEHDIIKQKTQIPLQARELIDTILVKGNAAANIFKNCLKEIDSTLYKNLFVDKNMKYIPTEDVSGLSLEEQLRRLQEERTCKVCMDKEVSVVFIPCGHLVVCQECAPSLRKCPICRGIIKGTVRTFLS

[23] = Drug localization in nucleus of human HeLa cells at 50 uM incubated for 4 to 10 hrs by AF488 dye based analysis; format: ADME, subcellular; conditions: time 4-10 hrs
[24] = tested on: HeLa; experiment: Binding affinity to APC2 in asynchronous human HeLa cells incubated for 2 hrs by pull down assay; format: cell-based
[25] = Drug localization in nucleoplasm of human HeLa cells at 50 uM incubated for 10 hrs by AF488 dye based analysis; format: ADME, subcellular
[26] = tested on: HeLa; experiment: Induction of mitosis prolongation in human HeLa cells assessed as time taken at 50 uM measured for 10 to 48 hrs by live cell imaging analysis; format: functional; conditions: time 10-48 hrs
[27] = molecular target: Anaphase-promoting complex subunit 11 (Homo sapiens) (UniProt Q9NYG5); experiment: Binding affinity to APC11 in asynchronous human HeLa cells incubated for 2 hrs by pull down assay; format: cell-based
[28] = Drug localization in cytoplasm of human HeLa cells at 50 uM incubated for 10 hrs by AF488 dye based analysis; format: ADME, subcellular

Ratio IC50 [3]: 4.5
inhibition [7]: inactive
pIC50 [8]: 5.71
SMILES: CC[C@H](C)[C@@H]1NC(=O)[C@H](CCC(=O)O)NC(=O)[C@H](CCCCN)NC(=O)[C@H]([C@@H](C)CC)NC(=O)[C@](C)(NC(=O)[C@H](Cc2c[nH]c3ccccc23)NC(=O)[C@H](Cc2c[nH]c3ccccc23)NC(=O)[C@H](CCC(=O)O)NC(C)=O)CCCCCC/C=C\CCC[C@@](C)(C(=O)N[C@@H](CCCNC(=N)N)C(=O)N[C@@H](CCCNC(=N)N)C(=O)N[C@@H](C)C(N)=O)NC(=O)[C@H](CCCNC(=N)N)NC(=O)[C@H](CCC(N)=O)NC1=O (Ac-EWW[R8]IKEIQR[S5]RRA-NH2; staple (Z) 4-11)
inhibition [1]: Active
inhibition [2]: Active
Activity [4]: No effect
pKi [5]: 5.30
inhibition [6]: Active; Compound Exerted Better Inhibitory Effect Than Tame
inhibition [9]: > 80%
inhibition [10]: 100%
inhibition [11]: Active

Drug uptake [12]: Active
SMILES: C#CC[C@H](NC(=O)[C@H](Cc1c[nH]c2ccccc12)NC(=O)[C@H](CCC(=O)O)NC(C)=O)C(=O)N[C@]1(C)CCCCCC/C=C\CCCC[C@@](C)(C(=O)N[C@@H](CCCNC(=N)N)C(=O)N[C@@H](CCCNC(=N)N)C(=O)N[C@@H](C)C(N)=O)NC(=O)[C@H](CCCNC(=N)N)NC(=O)[C@H](CCC(N)=O)NC(=O)[C@H]([C@@H](C)CC)NC(=O)[C@H](CCC(=O)O)NC(=O)[C@H](CCCCN)NC(=O)[C@H]([C@@H](C)CC)NC1=O (Ac-EW[Pra][R8]IKEIQR[X2]RRA-NH2; staple (Z) 4-11)

Drug uptake [12]: Active
Activity [13]: inactive
Activity [14]: Active
Activity [15]: inactive
SMILES: C#CC[C@H](NC(=O)[C@@H]1CCCN1C(=O)[C@H](Cc1c[nH]c2ccccc12)NC(=O)[C@H](CCCNC(=N)N)NC(C)=O)C(=O)N[C@@]1(C)CCC/C=C/CCC[C@@](C)(C(=O)N[C@@H](CCC(N)=O)C(=O)N[C@H](C(=O)N[C@@H](CCCNC(=N)N)C(=O)N[C@@H](CCCNC(=N)N)C(=O)N[C@@H](Cc2c[nH]c3ccccc23)C(N)=O)C(C)C)NC(=O)[C@H](CC(=O)O)NC(=O)[C@H](Cc2c[nH]c3ccccc23)NC(=O)[C@H](CCCCN)NC1=O (Ac-RWP[Pra][S5]KWD[S5]QVRRW-NH2; staple (E) 5-9)
Activity [4]: No effect

deltaG [17]: -29.4 kcal/mol
SMILES: CC(=O)N[C@H](C(=O)N[C@@H](Cc1cnc[nH]1)C(=O)N[C@H]1CSSC[C@@H](C(=O)N[C@@H](CCC(N)=O)C(=O)N[C@@H](CCCNC(=N)N)C(=O)N[C@H](C(N)=O)C(C)C)NC(=O)[C@H](CC(N)=O)NC(=O)[C@H](Cc2c[nH]c3ccccc23)NC(=O)[C@H](CCCNC(=N)N)NC(=O)[C@H](Cc2c[nH]c3ccccc23)NC(=O)[C@H]([C@@H](C)O)NC(=O)[C@H](CCC(=O)O)NC(=O)[C@@H]2CCCN2C(=O)[C@H](CC(=O)O)NC(=O)[C@H](CC(=O)O)NC1=O)[C@@H](C)O (Ac-THCDDPETWRWNCQRV-NH2; disulfide 3-13)
inhibition [16]: Active
inhibition [6]: Active
inhibition [18]: Active

Activity [19]: inactive
Activity [20]: inactive
Activity [13]: Active
Activity [21]: inactive
Activity [14]: Active
Activity [22]: inactive
Activity [15]: Active
SMILES: C#CC[C@H](NC(C)=O)C(=O)N[C@@H](CCCNC(=N)N)C(=O)N[C@H]1CSSC[C@@H](C(=O)N[C@@H](CCCNC(=N)N)C(N)=O)NC(=O)[C@H](Cc2c[nH]c3ccccc23)NC(=O)[C@H](Cc2ccccc2)NC(=O)[C@H]([C@@H](C)O)NC(=O)[C@H](CCCNC(=N)N)NC(=O)[C@@H]2CCCN2C(=O)CNC(=O)[C@H](Cc2c[nH]c3ccccc23)NC(=O)[C@H](Cc2cnc[nH]2)NC1=O (Ac-[Pra]RCHWGPRTFWCR-NH2; disulfide 3-12)

Drug uptake [23]: Active
Drug uptake [25]: Active
Activity [27]: inactive
Drug uptake [28]: Active
SMILES: C#CC[C@H](NC(=O)[C@H](Cc1c[nH]c2ccccc12)NC(=O)[C@H](CCC(=O)O)NCCOCCOCCOCCOCCOCCOC(=O)CNC(=O)[C@H](Cc1ccccc1)NC(=O)[C@H](Cc1c[nH]c2ccccc12)NC(=O)[C@H](Cc1ccccc1)NC(=O)CNC(C)=O)C(=O)N[C@]1(C)CCCCCC/C=C\CCC[C@@](C)(C(=O)N[C@@H](CCCNC(=N)N)C(=O)N[C@@H](CCCNC(=N)N)C(=O)N[C@@H](C)C(N)=O)NC(=O)[C@H](CCCNC(=N)N)NC(=O)[C@H](CCC(N)=O)NC(=O)[C@H]([C@@H](C)CC)NC(=O)[C@H](CCC(=O)O)NC(=O)[C@H](CCCCN)NC(=O)[C@H]([C@@H](C)CC)NC1=O (I: H-[X1]W[Pra][R8]IKEIQR[S5]RRA-NH2 / II: Ac-GFWFG; ester I:1-II:C; staple (Z) I:4-I:11)
Activity [24]: inactive
Time [26]: ~74 min
